Legend:
[1] = in vivo; conditions: female, Chinese Cynomolgus, cynomolgus monkey, sc
[2] = cynomolgus monkey, in vivo, sc

## CC[C@H](C)[C@H](NC(=O)[C@H](CO)NC(=O)[C@H](CCCCN)NC(=O)CNC(=O)[C@H](CCCCN)NC(=O)[C@H](CC(=O)O)NC(=O)[C@H](Cc1cnc[nH]1)NC(=O)[C@H](CC(C)C)NC(=O)[C@H](CC(C)C)NC(=O)[C@H](CCC(N)=O)NC(=O)[C@H](Cc1cnc[nH]1)NC(=O)[C@H](CCC(=O)O)NC(=O)[C@H](CO)NC(=O)[C@@H](NC(=O)[C@H](C)N)C(C)C)C(=O)N[C@@H](CCC(N)=O)C(=O)N[C@@H](CC(=O)O)C(=O)N[C@@H](CC(C)C)C(=O)N[C@@H](CCCNC(=N)N)C(=O)N[C@@H](CCCNC(=N)N)C(=O)N[C@@H](CCCNC(=N)N)C(=O)N[C@@H](CCC(=O)O)C(=O)N[C@@H](CC(C)C)C(=O)N[C@@H](CC(C)C)C(=O)N[C@@H](CCC(=O)O)C(=O)N[C@@H](CCCCN)C(=O)N[C@@H](CC(C)C)C(=O)N[C@@H](CC(C)C)C(=O)NC(C)(C)C(=O)N[C@@H](CCCCN)C(=O)N[C@@H](CC(C)C)C(=O)N[C@@H](Cc1cnc[nH]1)C(=O)N[C@H](C(=O)N[C@@H](C)C(N)=O)[C@@H](C)O [Abaloparatide, [Glu^22,25, Leu^23,28,31, Aib^29, Lys^26,30]hPTHrP(1-34)NH2]
[1]
  Cmax: 3.34 ng/mL
  Tmax: 7 min
  half-life: 14 min
  level at 5 min: 1.9 ng/mL
  level at 10 min: 0.88 ng/mL
  level at 20 min: 0.542 ng/mL
  level at 0.5 h: 0.222 ng/mL
  level at 1 h: 0.12 ng/mL
[2]
  AUC: 131610
